Experimental data reported in publication PMC5823688 (Molecular pharmaceutics, 2017).

What was measured:
[1] = system: mitochondria of granta-519 tumor cells; assay: Cytochrome C release from mitochondria of tumor cells; assay type: cell-based; conditions: 10 μM peptide; in comparison to a positive 1% Triton X-100 control; Figure S4
3T3 fibroblasts = conditions: MTS; after 120 h of treatment
SKOV3 cells = conditions: 10 μM polymer, 72 h; FITC-annexin V, flow cytometry
[2] = system: SKOV3 human ovarian cancer cells; conditions: all polymer concentrations (0 to 10 μM), 96 h, MTS
[3] = system: caspase 3/7 activity in SKOV3 cells; conditions: 0-10 μM polymer, 72 h

FLAhxMRPEI-WIAQELRRIGvDEFNAY [FLAhxBIM]
cytochrome C release [1]: > 90%

poly[(DEAEMA)-co-(BMA)]-b-[(PEGMA300)-c-(MaCath-BIM)] [PolCathBIM]
BIM-mediated cell death in 3T3 fibroblasts (3T3 fibroblasts): no BIM-mediated cell death was observed
cells staining positive for annexin V (SKOV3 cells): 87%

poly[(DEAEMA)-co-(BMA)]-b-[(PEGMA300)-c-(MaCathScrBIM)] [PolCathScrBIM]
cell viability [2]: greater than 90%
change in caspase 3/7 activity relative to untreated cultures [3]: no change
cells staining positive for annexin V (SKOV3 cells): 15%
